# Results reported in patent US12357586B2, “Use of the phytocannabinoid cannabidiol (CBD) in combination with a standard anti-epileptic drug (SAED) in the treatment of epilepsy” (JAZZ PHARMACEUTICALS RESEARCH UK LIMITED, priority 2011, dated 2025).
# What was measured:
# [1] = tested on: pilocarpine-induced seizures; experiment: pilocarpine model of (temporal lobe) epilepsy; assay type: in vivo
# Procedure: Isolated CBD was injected intra-peritoneally (IP) in the standard vehicle (1:1:18 ethanol:Cremophor:0.9% w/v NaCl) at doses of 50, 100 and 200 mg/kg alongside animals that received vehicle alone at a matched volume. 15 minutes later methylscopolamine (1 mg/kg; to reduce peripheral muscarinic effects of pilocarpine) was administered followed, 45 minutes later by pilocarpine (380 mg/kg, IP) administration.
# [2] = tested on: grand mal patients; conditions: 200-300 mg of cannabidiol plus regular medication; cited from earlier work
# [3] = tested on: epileptic patients; conditions: 200-300 mg of cannabidiol per day in addition to standard antiepileptic drugs; 12 epileptic patients; cited from earlier work
# [4] = tested on: seizure frequency in a single patient; conditions: 900-1200 mg of cannabidiol a day for 10 months; cited from earlier work
# [5] = tested on: institutionalized children not responding to standard treatment; conditions: 5 institutionalized children not responding to phenobarbital and phenoytin; cited from earlier work
# [6] = CBD 100 mg/kg, Phenobarbitol 0 mg/kg
# [7] = significance of effect, pilocarpine model
# [8] = CBD 0 mg/kg, Phenobarbitol 10 mg/kg
# [9] = CBD 0 mg/kg, Phenobarbitol 20 mg/kg
# [10] = CBD 0 mg/kg, Phenobarbitol 40 mg/kg
compound,measurement,setting,value
"C=C(C)[C@@H]1CCC(C)=C[C@H]1c1c(O)cc(CCCCC)cc1O [CBD, cannabidiol]",Onset latency,[1]; [6],500 s
same,Seizure free (%),[1]; [6],0%
same,ALL EPISODES Mean severity of episodes,[1]; [7],* (* = p < 0.05)
same,EPISODE 2 Severity,[1]; [7],* (* = p < 0.05)
same,patients who remained unchanged,[2],1
same,patients who showed complete improvement,[2],3
same,patients who showed minor improvement,[2],2
same,patients who showed partial improvement,[2],2
same,unwanted effect,[2],mild sedation
same,improvement in seizure frequency,[3],no significant improvement in seizure frequency
same,seizure frequency,[4],markedly reduced
"CCC1(c2ccccc2)C(=O)NC(=O)NC1=O [Phenobarbitol, phenobarbital]",Onset latency,[1]; [8],800 s
same,Seizure free (%),[1]; [8],25%
same,Onset latency,[1]; [9],900 s
same,Seizure free (%),[1]; [9],55%
same,Onset latency,[1]; [10],1800 s
same,Seizure free (%),[1]; [10],75%
"CCCCCc1cc(O)c2c(c1)OC(C)(C)[C@@H]1CCC(C)=C[C@@H]21 [THC, tetrahydrocannabinol]",seizure outcome,[5],"One became entirely free of seizures, one became almost completely free of seizures, and the other three did no worse than before"
"CCCC(CCC)C(=O)O [Valproate, valproate]",ALL EPISODES Mean duration of episodes,[1]; [7],* (* = p < 0.05)
same,ALL EPISODES Mean number of episodes,[1]; [7],** (** = p < 0.01)
same,ALL EPISODES Mean severity of episodes,[1]; [7],** (** = p < 0.01)
same,ALL EPISODES Mean time spent in episodes,[1]; [7],* (* = p < 0.05)
same,ALL EPISODES Percentage episode free,[1]; [7],** (** = p < 0.01)
same,ALL EPISODES Percentage ≥3 episodes,[1]; [7],# (# = p < 0.01)
same,EPISODE 1 Latency,[1]; [7],** (** = p < 0.01)
same,EPISODE 1 Severity,[1]; [7],* (* = p < 0.05)
same,EPISODE 2 Duration,[1]; [7],# (# = p < 0.01)
same,EPISODE 2 Latency,[1]; [7],# (# = p < 0.01)
